{"source": "patent US7776873B2", "about": "“Method for treating damage to gastric mucosa” (Yuhan Corporation, priority 2005, dated 2010)", "key": {"[1]": {"test_system": "NF-kB (nuclear factor-kappa B)", "assay": "DNA binding activity of NF-kB after H. pylori infection (EMSA)", "assay_type": "cell-based, human", "details": "FIG. 5", "procedure": "The DNA binding activity of NF-kB (nuclear factor-kappa B), a redox-sensitive transcription factor known to be associated with H. pylori infection was evaluated using EMSA. Rebamipide (50 μM), known to have cytoprotective properties, was used as a control drug, and revaprazan (25 μM) was used as a test drug. The human gastric epithelial (AGS, KCLB 21739) cells were seeded in culture dishes at 2×10^6 cells/100 mm^2 and cultured in RPMI 1640 (Gibco BRL, Grand Island, N.Y., U.S.A.), supplemented with 100 units/mL penicillin, 100 ug/mL streptomycin, and 10% FBS (Fetal Bovine Serum). […] The culture media were removed and the cells were twice washed with PBS (137 mM NaCl, 2.7 mM KCl, 10 mM Na2HPO4, and 2 mM KH2PO4). For inoculation, H. pylori (ATCC 43504) cultures were resuspended in PBS and cocultured with AGS cells at a final concentration of 5×10^8 CFU/ml at 37° C. for one hour. The nuclear fractions for EMSA were prepared using the NE-PER Nuclear and the Cytoplasmic Extraction Kit (Pierce, Rockford, Ill., U.S.A.). Sequences of double-stranded oligonucleotides used for EMSA of NF-kB were as follows; [NT], and the oligonucleotides were labeled with a Biotin 3' End DNA Labeling Kit (Pierce, Rockford, Ill., U.S.A.). The EMSA was performed with a Light Shift Chemiluminescent EMSA Kit (Pierce, Rockford, Ill., U.S.A.)."}, "[2]": {"test_system": "VEGF (Vascular Endothelial Growth Factor)", "assay": "Expression level of VEGF in sulindac-treated cells (RT-PCR)", "assay_type": "cell-based, rat", "details": "RGM-1 cells, revaprazan 25 uM (rebamipide 50 uM) 16 hours, then sulindac 100 uM 8 hours, FIG. 6", "procedure": "In order to evaluate cytoprotective effect of revaprazan, 100 μM of sulindac belonging to NSAIDs was added to the rat cells, and the expression levels of pro-angiogenic growth factors, VEGF (Vascular Endothelial Growth Factor), interleukin-8 (IL-8), and COX-2 (cyclooxygenase-2) were measured. Rebamipide (50 μM), known to have cytoprotective properties, was used as a control drug and revaprazan (25 μM) was used as a test drug. The rat gastric mucosal (RGM-1, RIKEN cell bank, Japan) cells were seeded in culture dishes at 2×10^6 cells/100 mm^2 and cultured in RPMI 1640 (Gibco BRL, Grand Island, N.Y., U.S.A.), supplemented with 100 units/mL penicillin, 100 ug/mL streptomycin, and 10% FBS (Fetal Bovine Serum). […] The culture media were removed and the cells were washed three times with PBS (137 mM NaCl, 2.7 mM KCl, 10 mM Na2HPO4, and 2 mM KH2PO4). A solution of sulindac in DMSO was added to the cells to reach a final concentration of 100 uM and the cells were cultured at 37° C. for 8 hours. The cultured cells were collected by centrifugation at 23° C. at 3000 rpm for 3 minutes, and the total RNA was isolated from the cells using the TRIzol reagent (Life technologies, Milan, Italy). Sterilized RNase-free water was added to 2 μg of the total RNA and 1 μl of 10 pmol/λ oligo dT to obtain reaction solutions with a volume of 34 μl. […]"}, "[3]": {"test_system": "human gastric epithelial (AGS) cells infected with H. pylori (ATCC 43504)", "assay": "Incidence of H. pylori-induced cell death (MTT assay-1)", "assay_type": "cell-based", "details": "FIG. 1", "procedure": "In order to determine cytoprotective properties of revaprazan against H. pylori infection, gastric mucosal cells were pretreated with revaprazan and rebamipide prior to H. pylori infection, and the incidence of cell death was measured. Rebamipide, known to have cytoprotective properties, was used as a control drug.\nThe human gastric epithelial (AGS, KCLB 21739) cells were seeded onto 96-well plate at 5×10^4 cells/ml and cultured in RPMI 1640 (Gibco BRL, Grand Island, N.Y., U.S.A.), supplemented with 100 units/mL penicillin, 100 ug/mL streptomycin, and 10% FBS (Fetal Bovine Serum). Revaprazan and rebamipide, dissolved in sterilized water, were added to AGS cells to reach a final concentration of 50 uM and the cells were incubated at 37° C. for 16 hours. To remove RPMI 1640 media, the plate was centrifuged at 24° C., 3000 rpm for 5 minutes and washed three times with PBS (137 mM NaCl, 2.7 mM KCl, 10 mM Na2HPO4, and 2 mM KH2PO4). For inoculation, H. pylori (ATCC 43504) cultures were resuspended in PBS and cocultured with AGS cells at a final concentration of 5×10^8 CFU/ml. After 48 hours of incubation at 37° C., the culture was centrifuged at 24° C., 3000 rpm for 5 minutes to remove the culture medium, i.e., RPMI 1640, and then total viable cell numbers were assessed by MTT (3-[4,5-dimethylthiazol-2-yl]-2,5-diphenyl tetrazolim bromide) assay method. 1 mg/ml of an MTT solution prepared by dissolving MTT (Amresco, Ohio, U.S.A.) in PBS (137 mM NaCl, 2.7 mM KCl, 10 mM Na2HPO4, and 2 mM KH2PO4) was added to each well (50 μl/well), followed by incubation at 37° C. for 4 hours. The supernatant was then removed by centrifugation at 24° C., 3000 rpm for 5 minutes and the formazan grains formed by the viable cells were dissolved in 99.5% dimethyl sulfoxide (DMSO) (Kanto, Tokyo, Japan) (50 μl/well), and the optical intensity was measured at 540 nm using an ELISA reader (TECAN, Maennedorf, Switzerland)."}}}
{"molecule": "Cc1nc(Nc2ccc(F)cc2)nc(N2CCc3ccccc3C2C)c1C", "note": "(centres unmarked) [revaprazan, 5,6-dimethyl-2-(4-fluorophenylamino)-4-(1-methyl-1,2,3,4-tetrahydroisoquinolin-2-yl)pyrimidine]", "values": [{"measurement": "NF-kB activity (DNA binding)", "setting": "[1]; AGS cells, 25 uM pretreatment for 16 hours, then H. pylori one hour", "result": "significantly inhibited"}, {"measurement": "cytoprotective effect (NF-kB inhibition) compared with rebamipide", "setting": "[1]; revaprazan 25 uM vs rebamipide 50 uM", "result": "equal to or greater than rebamipide"}, {"measurement": "expression level of VEGF versus rebamipide-sulindac treatment group", "setting": "[2]", "result": "much higher"}, {"measurement": "cytoprotective effect against H. pylori-induced cytotoxicity compared with rebamipide", "setting": "[3]; 50 uM each", "result": "equal to or greater than rebamipide"}, {"measurement": "gastric mucosal cytotoxicity by H. pylori infection", "setting": "[3]; 50 uM pretreatment for 16 hours, then 48-hour H. pylori infection", "result": "significantly reduced"}]}
